These results are taken from patent EP0640606B1, “Thienopyrimidine derivatives, their production and use” (TAKEDA CHEMICAL INDUSTRIES, LTD., priority 1993, dated 1995).

For assay [1], the target named is T1, Endothelin-A Receptor (Homo sapiens, UniProt P25101).
T1 construct: expressed in transfected cells; host or cells: Sf9 insect cells (membrane fraction)
T1 sequence (P25101 21-427): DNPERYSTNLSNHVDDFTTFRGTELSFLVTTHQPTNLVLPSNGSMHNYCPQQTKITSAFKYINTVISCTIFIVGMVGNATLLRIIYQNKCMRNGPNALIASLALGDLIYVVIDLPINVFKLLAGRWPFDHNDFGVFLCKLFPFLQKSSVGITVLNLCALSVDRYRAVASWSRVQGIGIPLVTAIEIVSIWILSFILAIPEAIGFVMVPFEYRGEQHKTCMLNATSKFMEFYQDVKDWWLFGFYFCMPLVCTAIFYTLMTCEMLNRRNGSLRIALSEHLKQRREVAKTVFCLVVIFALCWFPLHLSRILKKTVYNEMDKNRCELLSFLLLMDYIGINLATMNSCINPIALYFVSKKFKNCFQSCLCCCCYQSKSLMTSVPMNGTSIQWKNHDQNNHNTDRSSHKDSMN
In words: Endothelin Assay Test, [125I]endothelin-1 binding to insect cell (Sf9) membrane fraction expressing human ETA receptor. Particulars: human ETA receptor expressed, 25°C for 60 minutes, PMB = 50%, read-out: IC 50 Endothelin-A Receptor (human). On the procedure: (§1) Endothelin (ET) receptors were prepared as follows. An insect cell (Sf9) membrane fraction wherein human endothelin-A (ETA) was expressed and that wherein endothelin-B (ETB) was expressed were diluted with an assay buffer [comprising 20 mM of Tris-HCl, 2 mM of EGTA (ethylene glycol bis(2-aminoethyl ether)tetraacetic acid), 5 mM of magnesium acetate, 0.1% of BSA (bovine serum albumin), 0.03% of NaN3, 0.5 mM of PMSF (phenylmethylsulfonyl fluoride), 20 micrograms/ml of leupeptin, 4 micrograms/ml of E-64 (manufactured by the Peptide Institute, Japan) and 1 microgram/ml of pepstatin; pH 7.2] to make 1.4 micrograms/ml and 0.7 microgram/ml for the insect cell (Sf 9) membrane fraction wherein a human ETA receptor was expressed and for that wherein a human ETB receptor was expressed, respectively. Each 100 microliters of them were taken out and 2 microliters of 5nM [^125I]endothelin-1 was added thereto. A dimethyl sulfoxide solution (3 microliters) of the sample was added thereto and the mixture was incubated at 25°C for 60 minutes. Further, in order to measure the maximum binding (B0) and the nonspecific binding (NSB), a lot to which […] or […] of 10^-5M of endothelin-1 in dimethyl sulfoxide was added was incubated as well. An assay buffer suspended with 0.05% CHAPS (3-[(3-cholamidopropyl)di-methylammonio]-1-propanesulfonate, 1.5 ml) was added and the mixture was filtered through a GF/F glass fiber filter (trade name of Whatman, England) followed by washing with 1.5 ml of the same buffer.
(§2) The radioactivity of the filter was counted by a γ -counter and determined PMB by the same way described in Test Example 1. The value wherein PMB = 50% was calculated and expressed as an IC50.

The target in assay [2] is T2, Endothelin-B Receptor (Homo sapiens, UniProt P24530).
T2 construct: expressed in transfected cells; host or cells: Sf9 insect cells (membrane fraction)
T2 sequence (P24530 27-442): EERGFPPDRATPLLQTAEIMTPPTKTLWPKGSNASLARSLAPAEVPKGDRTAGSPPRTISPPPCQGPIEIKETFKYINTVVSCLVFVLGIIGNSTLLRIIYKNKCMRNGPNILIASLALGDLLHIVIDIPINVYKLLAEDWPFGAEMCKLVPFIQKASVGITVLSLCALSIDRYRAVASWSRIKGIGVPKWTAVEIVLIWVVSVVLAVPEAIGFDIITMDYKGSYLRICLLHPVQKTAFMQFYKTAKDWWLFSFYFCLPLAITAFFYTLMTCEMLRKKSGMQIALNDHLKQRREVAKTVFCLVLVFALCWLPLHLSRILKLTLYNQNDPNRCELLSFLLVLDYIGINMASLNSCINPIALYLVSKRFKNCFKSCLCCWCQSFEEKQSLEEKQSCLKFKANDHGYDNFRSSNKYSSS
In words: Endothelin Assay Test, [125I]endothelin-1 binding to insect cell (Sf9) membrane fraction expressing human ETB receptor. Particulars: human ETB receptor expressed, 25°C for 60 minutes, PMB = 50%, read-out: IC 50 Endothelin-B Receptor (human). On the procedure: as §1, §2

The target of assay [3] is T3, Endothelin-A Receptor (Sus scrofa, UniProt Q29010).
T3 construct: A pig ventricular muscle membrane fraction for an endothelin-A receptor assay; from tissue; host or cells: pig ventricular muscle membrane fraction
T3 sequence (Q29010 21-427): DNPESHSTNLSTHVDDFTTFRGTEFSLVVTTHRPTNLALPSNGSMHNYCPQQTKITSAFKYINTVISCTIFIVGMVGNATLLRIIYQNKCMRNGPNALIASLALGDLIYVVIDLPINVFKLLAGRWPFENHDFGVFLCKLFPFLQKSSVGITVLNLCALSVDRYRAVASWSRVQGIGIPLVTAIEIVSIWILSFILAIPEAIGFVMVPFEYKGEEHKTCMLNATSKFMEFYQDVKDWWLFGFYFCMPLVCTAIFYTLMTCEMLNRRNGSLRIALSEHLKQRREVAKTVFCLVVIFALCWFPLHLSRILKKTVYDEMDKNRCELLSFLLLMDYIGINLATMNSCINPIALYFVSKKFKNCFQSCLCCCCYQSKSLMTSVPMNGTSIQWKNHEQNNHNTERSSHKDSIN
In words: Endothelin Receptor Assay, [125I]endothelin-1 binding to pig ventricular muscle membrane fraction. Particulars: 25°C for 60 minutes, concentration wherein PMB was 50%, read-out: IC50 Endothelin-A Receptor (pigs). The protocol: (§3) A pig ventricular muscle membrane fraction for an endothelin-A receptor assay and a bovine cerebral membrane fraction for an endothelin-B receptor assay were diluted with an assay buffer [comprising 20 mM of Tris-HCl, 2 mM of EGTA (ethylene glycol bis(2-aminoethyl ether)tetraacetic acid), 5 mM of magnesium acetate, 0.1% of BSA (bovine serum albumin), 0.03% of NaN3, 0.5 mM of PMSF (phenylmethylsulfonyl fluoride), 20 micrograms/ml of leupeptin, 4 micrograms/ml of E-64 (manufactured by the Peptide Institute, Japan) and 1 microgram/ml of pepstatin; pH 7.2] to 12 µg/ml and 180 µg/ml, respectively.
(§4) To each 100 microliter of them was added 5 nM [^125I] endothelin-1 (2 microliters). A solution (3 microliters) of the sample was added and the mixture was incubated at 25°C for 60 minutes. In order to measure the maximum binding (B0) and the nonspecific bonding (NSB), a lot to which dimethyl sulfoxide (3 microliters) or a solution (3 microliters) of 10^-5M of endothelin in dimethyl sulfoxide was added was incubated as well. […] The radioactivity of the filter was counted by a γ -counter and a calculation was conducted in accordance with the following formula (1) whereby a percent maximum binding (hereinafter, referred to as PMB) was determined. […]

In assay [4] the target is T4, Endothelin-B Receptor (Bos taurus, UniProt P28088).
T4 construct: a bovine cerebral membrane fraction for an endothelin-B receptor assay; from tissue; host or cells: bovine cerebral membrane fraction
T4 sequence (P28088 27-441): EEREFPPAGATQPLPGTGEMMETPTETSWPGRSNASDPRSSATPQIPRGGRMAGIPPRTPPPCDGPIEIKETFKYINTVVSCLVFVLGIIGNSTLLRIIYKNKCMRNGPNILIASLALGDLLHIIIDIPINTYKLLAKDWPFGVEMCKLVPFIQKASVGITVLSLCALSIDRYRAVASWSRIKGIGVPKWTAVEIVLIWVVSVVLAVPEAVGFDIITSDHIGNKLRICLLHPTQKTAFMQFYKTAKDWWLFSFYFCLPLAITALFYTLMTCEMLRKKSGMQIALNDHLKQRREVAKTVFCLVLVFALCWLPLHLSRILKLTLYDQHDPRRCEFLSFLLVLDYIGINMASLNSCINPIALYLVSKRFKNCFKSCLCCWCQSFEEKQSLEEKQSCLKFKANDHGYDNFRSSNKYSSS
In words: Endothelin Receptor Assay, [125I]endothelin-1 binding to bovine cerebral membrane fraction. Particulars: 25°C for 60 minutes, concentration wherein PMB was 50%. The protocol: as §3, §4

Turning to `CSc1ccccc1Cn1c(=O)n(CC(=O)O)c(=O)c2c(C)c(-c3ccc4c(c3)OCO4)sc21` [Compound 156], the IC50 was 2600 nM in assay [1] and 16000 nM in assay [2].
Take `CSc1ccccc1Cn1c(=O)n(CC(=O)O)c(=O)c2c(C)c(-c3ccc(-n4cccc4)cc3)sc21` [Compound 173, 2,4(1H,3H)-dioxo-1-(2-methylthiobenzyl)-6-[4-(1-pyrrolyl)phenyl]-5-methylthieno[2,3-d]pyrimidine-3-acetic acid]: the values for the IC50 in assay [1] and in assay [2] were 2100 nM and 2500 nM, respectively.
`CCCOc1ccc(-c2sc3c(c2C)c(=O)n(CC(=O)O)c(=O)n3Cc2ccccc2SC)cc1` [Compound 146, 2,4(1H,3H)-dioxo-5-methyl-1-(2-methylthiobenzyl)-6-(4-propoxyphenyl)thieno[2,3-d]pyrimidine-3-acetic acid]: the IC50 was 250 nM in assay [1] and 2600 nM in assay [2].
With `CSc1ccccc1Cn1c(=O)n(CC(=O)O)c(=O)c2c(C)c(-c3ccc(OCC(C)=O)cc3)sc21` [Compound 148, 2,4(1H,3H)-dioxo-5-methyl-1-(2-methylthiobenzyl)-6-[4-(2-oxopropoxy)phenyl]thieno[2,3-d]pyrimidine-3-acetic acid], the results for the IC50 in assay [1] and in assay [2] were 400 nM and 7100 nM, respectively.
`COc1ccc(-c2sc3c(c2C)c(=O)n(CC(=O)O)c(=O)n3Cc2ccccc2SC)cc1` [Compound 115, 2,4(1H,3H)-dioxo-5-methyl-6-(4-methoxyphenyl)-1-(2-methylthiobenzyl)thieno[2,3-d]pyrimidine-3-acetic acid]: the IC50 in assay [1] stood at 710 nM; in assay [2], 6800 nM.
With `COc1ccc(-c2sc3c(c2C)c(=O)n(CC(=O)O)c(=O)n3Cc2ccccc2C)cc1` [Compound 111], the IC50 was 1800 nM in assay [1] and 14000 nM in assay [2].
As for `CSCOc1ccc(-c2sc3c(c2C)c(=O)n(CC(=O)O)c(=O)n3Cc2ccccc2SC)cc1` [Compound 145, 2,4(1H,3H)-dioxo-5-methyl-6-(4-methylthiomethoxyphenyl)-1-(2-methylthiobenzyl)thieno[2,3-d]pyrimidine-3-acetic acid], the IC50 in assay [1] was 66 nM; in assay [2] it was 660 nM.
For the compound `COc1cccc(Cn2c(=O)n(CC(=O)O)c(=O)c3cc(-c4ccccc4)sc32)c1` [Compound 99], the IC50 in assay [3] was found to be 12000 nM; in assay [4], 39000 nM.
As to `COc1ccccc1Cn1c(=O)n(CC(=O)O)c(=O)c2c(C)c(-c3ccc(OCCO)cc3)sc21` [Compound 130], the values for the IC50 in assay [1] and in assay [2] were 1200 nM and 12000 nM, respectively.
The corresponding values for `COCOc1ccc(-c2sc3c(c2C)c(=O)n(CC(=O)O)c(=O)n3Cc2ccccc2OC)cc1` [Compound 131, 2,4(1H,3H)-dioxo-5-methyl-6-(4-methoxymethoxyphenyl)-1-(2-methoxybenzyl)thieno[2,3-d]pyrimidine-3-acetic acid] are 300 nM and 2400 nM.
With `COCOc1ccc(-c2sc3c(c2C)c(=O)n(CC(=O)O)c(=O)n3Cc2ccccc2SC)cc1` [Compound 144, 2,4(1H,3H)-dioxo-5-methyl-6-(4-methoxymethoxyphenyl)-1-(2-methylthiobenzyl)thieno[2,3-d]pyrimidine-3-acetic acid], the IC50 in assay [1] amounted to 85 nM; in assay [2] it was 920 nM.
The corresponding values for `COc1ccc(-c2sc3c(c2C)c(=O)n(CC(=O)O)c(=O)n3Cc2cc(OC)ccc2OC)cc1` [Compound 125] are 2900 nM and 26000 nM.
As for `COc1ccc(-c2sc3c(c2C)c(=O)n(CC(=O)O)c(=O)n3Cc2ccccc2OC)cc1` [Compound 105], the IC50 is 1900 nM in assay [1] and 12000 nM in assay [2].
Consider `COc1ccccc1Cn1c(=O)n(CC(=O)O)c(=O)c2c(C)c(-c3ccccc3)sc21` [Compound 102], for which the IC50 was found to be 1300 nM in assay [3] and 7500 nM in assay [4].
In the case of `COc1ccccc1Cn1c(=O)n(CC(=O)O)c(=O)c2c(C)c(-c3ccc(OCSC)cc3)sc21` [Compound 140, 2,4(1H,3H)-dioxo-5-methyl-6-(4-methylthiomethoxyphenyl)-1-(2-methoxybenzyl)thieno[2,3-d]pyrimidine-3-acetic acid], the IC50 in assay [1] amounted to 240 nM; in assay [2], 15000 nM.
Regarding `COc1ccccc1Cn1c(=O)n(CC(=O)O)c(=O)c2c(C)c(-c3ccc(OCC(N)=O)cc3)sc21` [Compound 143], the IC50 in assay [1] turned out to be 2500 nM; in assay [2], 33000 nM.
